Series [1] is described as follows: FaSSIF solubility. To be noted: kinetic from dmso stock, Fasted state simulated intestinal fluid, 2 hr at 25° C. It is filed as physicochemical. The protocol:
Test compounds were prepared as 10 mM stocks in DMSO and 15 μl samples transferred in duplicate into 1.5 mL glass flat bottom vials (BioTech Solutions). Fasted state simulated intestinal fluid (FaSSIF) or PBS (pH 7.4) was added to each vial to final volume of 500 μl. One PTFE encapsulated stir stick (V&P Scientific) was placed in each vial before sealing with PTFE/SIL plugs (BioTech Solutions). Vials were shaken at 1100 rpm for 2 hr at 25° C. Samples were then filtered through MultiScreen Solvinert filter plates (Millipore) via vacuum filtration. Aliquots of filtrate (5 μl) plus 5 μl DMSO were diluted in 490 μl 50% acetonitrile in water containing internal standard. The filtrate was analysed and quantified against a standard of known concentration using LC-MS/MS. Solubility values of the test compound and control compound were calculated as follows: [Sample]=(Area ratiosample*INJ VOL STD*DFsample*[STD])/(Area ratio STD*INJ VOLsample).

Series [2] can be described thus: Hepatocyte clearance assay, human. It counts as in vitro ADME. The note with it: cryopreserved primary human hepatocytes, average value from two experiments, read-out: Human heps intrinsic clearance (CLint). The procedure: In vitro clearance studies were performed in primary rat and human hepatocytes (BioIVT). Vials of cryopreserved rat or human hepatocytes were thawed in a 37° C. water bath for 2 min. Cells were transferred into thawing medium (Williams' Medium E containing 30% Percoll, 1× GlutaMAX-1, 15 mM HEPES, 5% fetal bovine serum (FBS), 4 μg/ml insulin, 1 μM dexamethasone), centrifuged at 100 g for 10 min then resuspended in culture medium (Leibovitz's L-15 Medium) at a concentration of 0.5×10^6 viable cells/mL (number of viable cells assessed using AO/PI staining). Hepatocytes (198 μL) were transferred into wells of a 96-well non-coated plate and placed in a 37° C. incubator for 10 min. Test compound solutions were prepared from 10 mM stocks in DMSO, diluted to 100 μM in 50% (v/v in water) acetonitrile. Test compound samples (2 μl) were added to each well of hepatocytes and incubated at 37° C. Samples (25 μl) were collected at t=0, 15, 30, […] and 120 min, mixed with 6 volumes (150 μl) of acetonitrile containing internal standard (100 nM alprazolam, 200 nM caffeine and 100 nM tolbutamide), vortexed for 5 min and centrifuged for 45 min at 3220 g. An aliquot of supernatant (100 μL) was diluted with 100 μL ultra-pure water, and the mixture was used for LC/MS/MS analysis. All incubations were performed in duplicate. Peak areas were determined from extracted ion chromatograms. The slope value, k, was determined by linear regression of the natural logarithm of the remaining percentage of the parent drug vs. incubation time curve. The in vitro half-life (in vitro t1/2) was determined from the slope value: in vitro t1/2=0.693/k. Conversion of the in vitro t1/2 (in min) into the in vitro intrinsic clearance (in vitro CLint, in μL/min/1×10^6 cells) was done using the following equation (mean of duplicate determinations): • in vitro CLint=kV/N • V=incubation volume (0.2 mL) • N=number of hepatocytes per well (0.1×10^6 cells). Microsomal Clearance Assay

A short description of series [3]: Microsomal clearance assay, rat liver microsomes. It is filed as in vitro ADME. The note with it: average value from two experiments, read-out: Rat liver microsomes intrinsic clearance (CLint). On the technique in general: Liver microsomes are a subcellular fraction often used to study metabolism.

Consider four compounds from US12497359B2, “Acrylamide derivatives” (NRG Therapeutics Ltd, priority 2020, dated 2025).

In brackets after ≈: the same amount, converted by molar mass.

Broadly, the solubility is the dissolved amount per volume that the medium holds. `COCc1ccccc1NC(=O)/C=C/c1ccc2cn[nH]c2c1` [Example 29, (E)-3-(1H-indazol-6-yl)-N-(2-(methoxymethyl)phenyl)acrylamide] yielded a solubility at 2 h in series [1] of 73 µM (≈ 22.4 µg/mL). Also, the hepatocyte CLint at 1 µM in series [2] was less than 3 µL/min/1e6 cells. Also, the microsomal CLint at 1 µM in series [3] was 10 µL/min/mg.

With `C[C@@H]1COc2ccccc2[C@@H]1NC(=O)/C=C/c1ccc2cn[nH]c2c1` (single isomer, unassigned) [Example 15d, (E)-3-(1H-indazol-6-yl)-N-(3-methylchroman-4-yl)acrylamide], the concentration in solution in series [1] (solubility at 2 h) came to 7 µM (≈ 2.33 µg/mL). Also, in series [2], the hepatocyte CLint at 1 µM was less than 3 µL/min/1e6 cells. For the same compound, the microsomal CLint at 1 µM in series [3] is less than 3 µL/min/mg.

As for `O=C(/C=C/c1ccc2cn[nH]c2c1)N[C@@H]1CCc2ccccc21` [Example 3, (R,E)-N-(2,3-dihydro-1H-inden-1-yl)-3-(1H-indazol-6-yl)acrylamide], the concentration in solution in series [1] (solubility at 2 h) came to 7 µM (≈ 2.12 µg/mL). Besides, the microsomal CLint at 1 µM in series [3] was 52 µL/min/mg.

For the compound `C[C@H]1Cc2ccccc2[C@@H]1NC(=O)/C=C/c1ccc2cn[nH]c2c1` (single isomer, unassigned) [Example 14c], the solubility at 2 h in series [1] is 8 µM (≈ 2.54 µg/mL). For the same compound, the hepatocyte CLint at 1 µM in series [2] was 40.4 µL/min/1e6 cells.
